Results from patent publication US7135572B2 (CJ Corp, priority 2001, dated 2006).

What was measured:
[1] = target: T1, cyclooxygenase-1 (Homo sapiens, UniProt P23219); experiment: Inhibition of cyclooxygenase-1 in U-937 cells (PGE2 quantitation); assay type: cell-based; conditions: U-937 cells
T1 construct: The cultured U-937 (humane lymphoma cell, obtained from Korean cell line bank) was centrifuged to collect the pellet; endogenous in cells; host or cells: U-937 (human lymphoma cell line, Korean cell line bank)
Experimental: (§1) In order to investigate pharmacologically the selective inhibition activity against cyclooxygenase-2 enzyme, the inhibitive effects against cyclooxygenase-1 and cyclooxygenase-2 were measured by two methods as follows.
Then, the pellet was diluted with 1×HBSS(Hank's balanced salt solutin) at the concentration of 1×10^6 cells/ml, and 1 ml of them was transferred into each well of 12-well plates, and then dissolved with DMSO. 5μl of the diluted sample solution, and 5μl of DMSO vehicle were added therein and mixed, and the mixture was cultured at 37° C. in Co2 incubator for 15 minutes. Arachidonic acid as a substrate was dissolved in ethanol to prepare a stock solution with a concentration of 10 mM, followed by diluting with 1×HBSS to prepare the solution of 1 mM. 10 μl of 1 mM Arachidonic acid solution was added to each of the treated wells, and the mixture was cultured at 37° C. in CO2 incubator for 30 minutes. The cell solution of each well was collected in the centrifuge tube and was centrifuged at 4° C. for 5 minutes at 10,000 rpm. As PGE2 existed in the supernatant separated from collected cell, the concentration of PGE2 was quantitated by using monoclonal kit from Cayman Chemicals, and the concentration of samples and vehicle were compared to estimate the inhibition ratio (%) of each compound against cyclooxygenase-1. Ultimately, the inhibition effect against the cyclooxygenase-1 enzyme was obtained from the result.

[2] = target: T2, cyclooxygenase-2 (Mus musculus, UniProt Q05769); experiment: Inhibition of cyclooxygenase-2 in Raw 264.7 cells treated with interferon γ and LPS (PGE2 EIA); assay type: cell-based; conditions: for Inhibitory effects of cyclooxygenase (COX): COX-2: Raw 264.7 cells
T2 construct: endogenous in cells; host or cells: Raw 264.7 (Korean cell line bank), aspirin-pretreated, induced with interferon gamma and LPS
T2 sequence (Q05769 18-604): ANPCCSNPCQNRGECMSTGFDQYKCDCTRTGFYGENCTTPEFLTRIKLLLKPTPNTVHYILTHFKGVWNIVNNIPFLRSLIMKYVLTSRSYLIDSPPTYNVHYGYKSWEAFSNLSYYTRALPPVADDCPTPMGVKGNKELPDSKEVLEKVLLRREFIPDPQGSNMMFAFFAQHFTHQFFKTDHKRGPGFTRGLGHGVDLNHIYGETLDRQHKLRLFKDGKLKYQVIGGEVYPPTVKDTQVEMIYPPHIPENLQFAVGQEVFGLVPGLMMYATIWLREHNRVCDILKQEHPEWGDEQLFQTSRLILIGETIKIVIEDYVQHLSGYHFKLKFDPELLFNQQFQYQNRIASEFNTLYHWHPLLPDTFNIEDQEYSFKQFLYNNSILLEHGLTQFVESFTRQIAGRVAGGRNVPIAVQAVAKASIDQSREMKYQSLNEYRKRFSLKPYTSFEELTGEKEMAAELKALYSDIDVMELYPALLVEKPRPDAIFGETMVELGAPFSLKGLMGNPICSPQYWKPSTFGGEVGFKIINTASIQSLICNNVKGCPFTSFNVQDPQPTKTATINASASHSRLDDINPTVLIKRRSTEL
Experimental: as §1
And then, each samples were replaced with new media and cultured for 30 minutes. In addition, the samples was treated with 100 units/ml of interferon Υ and 100 ng/ml of lipopolysaccharide(LPS), and cultured for 18 hours. Then, the media was transferred to other tubes and the PGE 2 was quantitated by using EIA kit from Cayman Chemicals.

T1 sequence (P23219 24-599): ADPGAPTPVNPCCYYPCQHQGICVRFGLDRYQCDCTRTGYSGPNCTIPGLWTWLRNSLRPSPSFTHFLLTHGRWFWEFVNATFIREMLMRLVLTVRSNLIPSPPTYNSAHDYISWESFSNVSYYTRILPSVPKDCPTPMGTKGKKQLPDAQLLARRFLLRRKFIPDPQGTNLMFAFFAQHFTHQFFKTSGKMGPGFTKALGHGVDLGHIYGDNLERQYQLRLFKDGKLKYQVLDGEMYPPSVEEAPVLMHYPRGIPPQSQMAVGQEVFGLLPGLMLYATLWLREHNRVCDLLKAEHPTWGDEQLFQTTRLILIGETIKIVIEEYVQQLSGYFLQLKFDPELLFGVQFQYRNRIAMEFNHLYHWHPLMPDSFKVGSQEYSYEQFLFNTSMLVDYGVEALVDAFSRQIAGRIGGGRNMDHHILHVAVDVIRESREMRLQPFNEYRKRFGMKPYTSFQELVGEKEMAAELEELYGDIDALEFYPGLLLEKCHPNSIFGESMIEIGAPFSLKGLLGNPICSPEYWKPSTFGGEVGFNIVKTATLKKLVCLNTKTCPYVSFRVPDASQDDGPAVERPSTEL

Cc1nc(-c2ccc(Br)cc2)n(-c2ccc(S(C)(=O)=O)cn2)n1 [Example 31, 2-[5-(4-bromo-phenyl)-3-methyl-[1,2,4]triazole-1-yl]-5-methanesulfonyl-pyridine]
Inhibitory effects of cyclooxygenase (COX): COX-1 ([1]; 3 μM): 81.4 % inhibition | Inhibitory effects of cyclooxygenase (COX): COX-1 ([1]; 10 μM): 82.0 % inhibition | Inhibitory effects of cyclooxygenase (COX): COX-1 ([1]; 30 μM): 88.1 % inhibition | Inhibitory effects of cyclooxygenase (COX): COX-2 ([2]; 30 nM): 69.5 % inhibition | Inhibitory effects of cyclooxygenase (COX): COX-2 ([2]; 100 nM): 99.8 % inhibition | Inhibitory effects of cyclooxygenase (COX): COX-2 ([2]; 300 nM): 99.9 % inhibition | selectivity of cyclooxygenase-2 compared with the comparative substance (in words) ([2]; COX-2 versus COX-1): hardly different
